ChEMBL document CHEMBL1201862, “PubChem BioAssay data set” (2004)
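Cultured in 96-well plates, cells were exposed to test compound for 48 hours across five concentrations. GI50 is the concentration that inhibits growth by half.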 The source made the active and inactive calls. No stated cut-off is given here; in the data, active = GI50 up to about 1.1 µM and inactive = higher.

Key:
Experiment in all cases: inhibition of tumour cell growth, NCI panel, 48 h
EKVX = system: EKVX
OVCAR-4 = system: OVCAR-4
TK-10 = system: TK-10
SN12C = system: SN12C
M14 = system: M14
SNB-19 = system: SNB-19
A549 = system: A549
NCI-H226 = system: NCI-H226
MDA-N = system: MDA-N
T47D = system: T47D
NCI-H460 = system: NCI-H460
SNB-75 = system: SNB-75
OVCAR-8 = system: OVCAR-8
SF-268 = system: SF-268
HOP-92 = system: HOP-92
Malme-3M = system: Malme-3M
BT-549 = system: BT-549
MCF7 = system: MCF7
HCT-116 = system: HCT-116

| SMILES | GI50 (EKVX) | GI50 (OVCAR-4) | GI50 (TK-10) | GI50 (SN12C) | GI50 (M14) | GI50 (SNB-19) | GI50 (A549) | GI50 (NCI-H226) | GI50 (MDA-N) | GI50 (T47D) | GI50 (NCI-H460) | GI50 (SNB-75) | GI50 (OVCAR-8) | GI50 (SF-268) | GI50 (HOP-92) | GI50 (Malme-3M) | GI50 (BT-549) | GI50 (MCF7) | GI50 (HCT-116) |
| --- | --- | --- | --- | --- | --- | --- | --- | --- | --- | --- | --- | --- | --- | --- | --- | --- | --- | --- | --- |
| Cc1ccc(S(=O)(=O)NCc2cccc([N+](=O)[O-])c2)cc1 | > 100 µM (inactive) | > 100 µM (inactive) | > 100 µM (inactive) | > 100 µM (inactive) | > 100 µM (inactive) | > 100 µM (inactive) | > 100 µM (inactive) | > 100 µM (inactive) | > 100 µM (inactive) | > 100 µM (inactive) | > 100 µM (inactive) | > 100 µM (inactive) | > 100 µM (inactive) | > 100 µM (inactive) | > 100 µM (inactive) | > 100 µM (inactive) | > 100 µM (inactive) | > 100 µM (inactive) | > 100 µM (inactive) |
| O=c1[nH]c(=O)n(C2OC(CO)C(O)C2O)c2ncc(-c3ccc(-c4ccccc4)cc3)nc12 (stereo not drawn) | > 20 µM (inactive) | > 20 µM (inactive) | > 20 µM (inactive) | > 20 µM (inactive) | – | > 20 µM (inactive) | > 20 µM (inactive) | > 20 µM (inactive) | > 20 µM (inactive) | > 20 µM (inactive) | > 20 µM (inactive) | > 20 µM (inactive) | > 20 µM (inactive) | > 20 µM (inactive) | > 20 µM (inactive) | > 20 µM (inactive) | > 20 µM (inactive) | > 20 µM (inactive) | > 20 µM (inactive) |
| CC(C)C[C@H](NC(=O)CCc1cccc2ccccc12)B(O)O | 5.27 µM (inactive) | 4.56 µM (inactive) | 0.578 µM (active) | 2.19 µM (inactive) | 0.942 µM (active) | 5.43 µM (inactive) | 4.74 µM (inactive) | 0.161 µM (active) | 0.452 µM (active) | 1.25 µM (inactive) | 3.21 µM (inactive) | 7.98 µM (inactive) | 2.81 µM (inactive) | 1.32 µM (inactive) | 2.17 µM (inactive) | 0.871 µM (active) | 0.506 µM (active) | 0.56 µM (active) | 0.473 µM (active) |
| COc1cc(S(=O)(=O)Nc2nc(-c3ccc(/N=C/c4ccccc4O)cc3)cs2)ccc1Cl | 23.4 µM (inactive) | 45.6 µM (inactive) | 74.3 µM (inactive) | 17.9 µM (inactive) | 30.1 µM (inactive) | 34.2 µM (inactive) | 41.3 µM (inactive) | 44.2 µM (inactive) | 30.5 µM (inactive) | 27.4 µM (inactive) | 35.3 µM (inactive) | 51.1 µM (inactive) | 38.5 µM (inactive) | 32 µM (inactive) | 29 µM (inactive) | 40.3 µM (inactive) | 37.4 µM (inactive) | 27.8 µM (inactive) | 29.4 µM (inactive) |
| COP(=O)(OC)/C(=C/c1cn(C(c2ccccc2)(c2ccccc2)c2ccccc2)cn1)NC=O | 22 µM (inactive) | 18.2 µM (inactive) | 22.5 µM (inactive) | 19.2 µM (inactive) | 15.1 µM (inactive) | 35 µM (inactive) | 23.4 µM (inactive) | 29.5 µM (inactive) | 19.2 µM (inactive) | 26.4 µM (inactive) | 16.4 µM (inactive) | 5.92 µM (inactive) | 21.7 µM (inactive) | 14.5 µM (inactive) | 18 µM (inactive) | 18.6 µM (inactive) | 16 µM (inactive) | 16 µM (inactive) | 13.8 µM (inactive) |
| C[C@@H](NC(=O)c1ccc(CNC(=O)/C=C/c2cccc(Oc3ccccc3)c2)cc1)c1ccccc1 | 21.8 µM (inactive) | > 100 µM (inactive) | 24.9 µM (inactive) | > 100 µM (inactive) | 99.1 µM (inactive) | 16.4 µM (inactive) | 14 µM (inactive) | 28.4 µM (inactive) | > 100 µM (inactive) | 27.7 µM (inactive) | 34.7 µM (inactive) | 6.18 µM (inactive) | 32.9 µM (inactive) | 20.8 µM (inactive) | 59.7 µM (inactive) | > 76.2 µM (inactive) | > 94 µM (inactive) | 97.1 µM (inactive) | > 69.3 µM (inactive) |
| Cc1ccc2nc3n(c2c1)C(c1c(F)cccc1F)SC3 (stereo not drawn) | – | > 100 µM (inactive) | > 100 µM (inactive) | > 100 µM (inactive) | > 100 µM (inactive) | > 100 µM (inactive) | > 100 µM (inactive) | > 100 µM (inactive) | > 100 µM (inactive) | > 100 µM (inactive) | > 100 µM (inactive) | > 100 µM (inactive) | – | > 100 µM (inactive) | 49.3 µM (inactive) | > 100 µM (inactive) | > 100 µM (inactive) | 47.1 µM (inactive) | > 100 µM (inactive) |
| CC(=O)OCC1OC(n2c3c(c(-c4ccc(Cl)cc4)c(C#N)c2=S)C(=O)CC(C)(C)C3)C(OC(C)=O)C(OC(C)=O)C1OC(C)=O (stereo not drawn) | – | 17.8 µM (inactive) | > 100 µM (inactive) | 16 µM (inactive) | 27.5 µM (inactive) | > 45.4 µM (inactive) | 38 µM (inactive) | 27.5 µM (inactive) | 11.5 µM (inactive) | 6.98 µM (inactive) | 33.7 µM (inactive) | 11.4 µM (inactive) | 9.55 µM (inactive) | 12.1 µM (inactive) | 18.5 µM (inactive) | 43.3 µM (inactive) | 3.14 µM (inactive) | 7.98 µM (inactive) | 19.1 µM (inactive) |
| Nc1cccc(Nc2nc3ccccc3nc2NS(=O)(=O)c2ccccc2)c1 | 43.9 µM (inactive) | 15.6 µM (inactive) | 42 µM (inactive) | 26 µM (inactive) | 26.2 µM (inactive) | 19.5 µM (inactive) | 33 µM (inactive) | 38 µM (inactive) | 33.4 µM (inactive) | 24.7 µM (inactive) | 22.1 µM (inactive) | 36.2 µM (inactive) | 30 µM (inactive) | 55.2 µM (inactive) | 23.3 µM (inactive) | 28.6 µM (inactive) | 6.65 µM (inactive) | 33.6 µM (inactive) | 17.3 µM (inactive) |
| C=CCN(c1cc(OCc2ccccc2)c(NC(C)=O)cc1[N+](=O)[O-])S(C)(=O)=O | 7.05 µM (inactive) | > 100 µM (inactive) | 36.5 µM (inactive) | 29 µM (inactive) | 38.3 µM (inactive) | 17.9 µM (inactive) | 33.2 µM (inactive) | 12.7 µM (inactive) | > 100 µM (inactive) | 29.3 µM (inactive) | > 100 µM (inactive) | 20 µM (inactive) | 23.1 µM (inactive) | 21.3 µM (inactive) | 19.2 µM (inactive) | 26.7 µM (inactive) | 28.8 µM (inactive) | 52.2 µM (inactive) | 28.5 µM (inactive) |
| COC(=O)C(Cc1ccccc1)NP(=O)(O)OCC1OC(n2cc(I)c(=O)[nH]c2=O)CC1O (stereo not drawn) | > 100 µM (inactive) | > 100 µM (inactive) | > 100 µM (inactive) | > 100 µM (inactive) | > 100 µM (inactive) | > 100 µM (inactive) | > 100 µM (inactive) | > 100 µM (inactive) | > 100 µM (inactive) | > 100 µM (inactive) | > 100 µM (inactive) | > 100 µM (inactive) | > 100 µM (inactive) | > 100 µM (inactive) | > 100 µM (inactive) | > 100 µM (inactive) | > 100 µM (inactive) | > 100 µM (inactive) | > 100 µM (inactive) |
| CCc1n[nH]c(=O)n1CCCCCCCCCCCCn1c(CC)n[nH]c1=O | 32 µM (inactive) | 20.3 µM (inactive) | 33 µM (inactive) | 59.8 µM (inactive) | 25.9 µM (inactive) | 39.7 µM (inactive) | 27.9 µM (inactive) | 36.9 µM (inactive) | 32.1 µM (inactive) | 18 µM (inactive) | 26.6 µM (inactive) | 21 µM (inactive) | 24.7 µM (inactive) | 29.7 µM (inactive) | 37.1 µM (inactive) | 25.9 µM (inactive) | 26.8 µM (inactive) | 23.9 µM (inactive) | 27 µM (inactive) |
| Cc1ccc(/C=N/Nc2ccc3ccccc3n2)s1 | 4.73 µM (inactive) | 20.7 µM (inactive) | 22.1 µM (inactive) | 13 µM (inactive) | 16.9 µM (inactive) | 21.3 µM (inactive) | 14.3 µM (inactive) | 80.7 µM (inactive) | 13.4 µM (inactive) | 8.28 µM (inactive) | – | > 100 µM (inactive) | 26.7 µM (inactive) | 60.1 µM (inactive) | 19.1 µM (inactive) | 14.9 µM (inactive) | 18.2 µM (inactive) | 17.5 µM (inactive) | 7.78 µM (inactive) |
| CC1=CC(C)(C)[C@H]2O[C@@]3(O)C[C@]4(C)[C@H]5C[C@@](C(C)C)(O[C@H]4c4ccoc4)O[C@H]4[C@]5(C3)O[C@@]1(O)[C@]24O | > 100 µM (inactive) | 54.2 µM (inactive) | > 100 µM (inactive) | > 100 µM (inactive) | > 100 µM (inactive) | 45.4 µM (inactive) | 75.9 µM (inactive) | > 100 µM (inactive) | > 100 µM (inactive) | > 100 µM (inactive) | – | 12.3 µM (inactive) | > 100 µM (inactive) | > 100 µM (inactive) | 83.8 µM (inactive) | 40.9 µM (inactive) | > 100 µM (inactive) | > 100 µM (inactive) | 61.8 µM (inactive) |
| O=C1CCc2ccc(O)c(c2)Oc2ccc(cc2)C(Sc2ccccc2)CCO1 (stereo not drawn) | 12.5 µM (inactive) | 12.2 µM (inactive) | 16 µM (inactive) | 15.8 µM (inactive) | 15.1 µM (inactive) | 19.7 µM (inactive) | 18.6 µM (inactive) | 15 µM (inactive) | 16.2 µM (inactive) | 7.74 µM (inactive) | – | 6.49 µM (inactive) | 18.1 µM (inactive) | 15.7 µM (inactive) | 10 µM (inactive) | 13.9 µM (inactive) | 14.4 µM (inactive) | 12.1 µM (inactive) | 16.2 µM (inactive) |
